Measured values as given in PMC7503713, “GANT61 Reduces Hedgehog Molecule (GLI1) Expression and Promotes Apoptosis in Metastatic Oral Squamous Cell Carcinoma Cells” (International Journal of Molecular Sciences, 2020).
pIC50: −log10 of the molar value.

Columns and labels:
[1] = tested on: SCC4; assay: alamarBlue cytotoxicity assay, SCC4; format: cell-based, human; settings: 72 h of incubation
Description: (§1) To assess the cytotoxicity of the GLI inhibitor GANT61 (Sigma-Aldrich, St. Louis, MO, USA) in tumor and non-tumor cell lines, an alamarBlue assay (Sigma-Aldrich Chemical Co, St. Louis, MO, USA) was performed after 72 h of exposure to the inhibitor, as described by Ahmed et al., 1994 [46]. Cells were distributed on 96-well plates at a density of 7 × 10^4 cells/mL for adhered cells, and 3 × 10^5 cells/mL for cells in suspension. All tested compounds were dissolved in DMSO, added to wells containing 100 µL of cells in complete medium, and then incubated for 72 h. Eight concentrations of GANT61 (0.19 to 50 µg/mL), Doxorubicin (Laboratory IMA S.A.I.C., Buenos Aires, Argentina), and 5-Fluorouracil (5-FU, Sigma-Aldrich, St. Louis, MO, USA), both used as positive controls at concentrations ranging from 0.03 to 5 µg/mL, were added to respective wells. […] Absorbance was measured at 570 nm (reduced) and 595 nm (oxidized) wavelengths, using a Spectramax 190 plate reader (Molecular Devices; Sunnyvale, CA, USA).
(§2) Statistical analyses were performed, using GraphPad Prism v. […] Data were analyzed according to distribution along the normal Gaussian curve. […] Differences between groups resulting from in vitro assays were evaluated by ANOVA (analysis of variance) testing, followed by the Student–Newman–Keuls test. […]

[2] = tested on: GLI1 mRNA; assay: qPCR of HH pathway gene expression in HSC3 cells, GLI1; format: cell-based, human; settings: 12 h
Description: (§3) For total RNA isolation, HSC3 cells were plated on 6-well plates, at a density of 0.7 × 10^5 cells/mL (5 mL/well volume), and incubated overnight, followed by treatment with the GLI inhibitor for 12 h at both concentrations (18 and 36 µM).
(§4) All experiments were carried out under DNAse/RNAse-free conditions. Silica microcolumns were used for RNA extraction, using an RNeasy Plus Mini Kit (QIAGEN, Hilden, Germany). Extracted RNA was analyzed for quantity and purity, using a NanoDrop®® 1000 spectrophotometer (Thermo Fisher Scientific, Waltham, MA, USA).
(§5) Reverse transcription was performed by using Superscript VILO™ transcriptase enzyme (Invitrogen, Carlsbad, CA, USA). The cDNA samples were stored at −20 °C, until the time of use.
(§6) HH pathway component expression was evaluated in cells treated or not with GANT61 by qPCR, using TaqMan Gene Expression Assays^TM inventoried for the PTCH1 (Hs00181117_m1), GLI1 (Hs01110766_m1), GLI2 (Hs01119974_m1), and GLI3 (Hs00609233_m1) genes, as well as for B2 M (Hs99999907_m1). […]
(§7) Following amplification and dissociation runs, quantification cycle (Cq) values were obtained by using the ViiA7^TM System Operational Program (AppliedByosistems, Foster City, CA, USA). For relative quantification, the comparative method (2−∆∆Cq) described by Livak and Schmittgen, 2001 was used. […]

[3] = tested on: PTCH1 mRNA; assay: qPCR of HH pathway gene expression in HSC3 cells, PTCH1; format: cell-based, human; settings: HSC3, 36 µM, 12 h, not significant
Description: as §3, §4, §5, §6, §7

[4] = tested on: GLI3 mRNA; assay: qPCR of HH pathway gene expression in HSC3 cells, GLI3; format: cell-based, human; settings: HSC3, 18 and 36 µM, 12 h, not significant
Description: as §3, §4, §5, §6, §7

[5] = tested on: PTCH1 protein; assay: Western blot of HH pathway proteins in HSC3 cells, PTCH1; format: cell-based, human; settings: HSC3, 18 and 36 µM, 24 h
Description: (§8) After culturing, HSC3 cells were washed with PBS and denatured by using cell lysis buffer containing 50 mM Tris-HCl (pH 7.4), 1% Triton X-100, 150 mM NaCl, 0.5 mM EGTA, 0.5 EDTA mM, and an anti-protease cocktail (Complete Pro-inhibitor Cocktail Tablets, Roche, Basel, Switzerland). Protein extracts (50 μg) were separated by SDS-PAGE and transferred to Hybond-C Extra (GE Healthcare, Chicago, IL, USA) nitrocellulose membranes. The following antibodies were used in the Western blot assay: mouse […] against Sonic Hedgehog (1:500, Clone 5 H4, Cat. number NBP2-22126, Novus Biologicals, Centennial, CO, USA), rabbit polyclonal against Gli1 (1:500, Novus Biologicals, Cat. number NB600-600), rabbit polyclonal against Patched 1 (1:500, Novus Biologicals, Cat.number NB200-118), and rabbit polyclonal against Smoothened (1:1000, Cat. number AB72130, Abcam, Cambridge, MA, USA). The secondary antibodies were anti-mouse IgG (1:10,000, Santa Cruz Biotechnology, Santa Cruz, CA, USA) and anti-rabbit IgG (1:10,000, GE Healthcare, Chicago, IL, USA). Signal detection was performed by using an ECL + Chemiluminescence Detection System (PerkinElmer, Villebon sur-Yvette, France). The antibody actin (1:10000, Cat. Number15 G5 A11/E2, Invitrogen, Carlsbad, CA, USA) was selected as an endogenous control for analysis of HH pathway component expression in HSC3 cells. […]

[6] = tested on: SHH protein; assay: Western blot of HH pathway proteins in HSC3 cells, SHH; format: cell-based, human; settings: HSC3, 18 and 36 µM, 24 h
Description: as §8

[7] = tested on: NOF; assay: alamarBlue cytotoxicity assay, normal oral fibroblasts NOF; format: cell-based; settings: Homo sapiens, Fibroblast, 72 h of incubation
Description: For comparative analysis, primary cultures of normal oral fibroblasts (NOF) were isolated from fragments of healthy patient gingiva, using the same technique previously described for CAFs above, and then maintained in culture for up to 15 passages.
as §1, with “h.” for “h. Eight concentrations of GANT61 (0.19 to 50 µg/mL), Doxorubicin (Laboratory IMA S.A.I.C., Buenos Aires, Argentina), and 5-Fluorouracil (5-FU, Sigma-Aldrich, St. Louis, MO, USA), both used as positive controls at concentrations ranging from 0.03 to 5 µg/mL, were added to respective wells.”
as §2

Row | SMILES | pIC50 [1] | mRNA expression of GLI1 ([2]; HSC3, 18 µM, not significant) | mRNA levels of GLI1 ([2]; HSC3, 36 µM, vs negative (DMSO 0.2%) and positive (5-FU) controls) | mRNA expression of PTCH1 [3] | mRNA expression of GLI3 [4] | PTCH1 protein expression [5] | SHH protein expression [6] | pIC50 [7]
1 | CN(C)c1ccccc1CN1CCCN(Cc2ccccc2N(C)C)C1c1ccncc1 [GANT61] | 3.96 | Reductions in mRNA expression | statistically significant reduction | Reductions in mRNA expression | Reductions in mRNA expression | reduced levels | reduced levels | 
2 | O=c1[nH]cc(F)c(=O)[nH]1 [5-FU, 5-fluorouracil] |  |  |  |  |  |  |  | 4.40
